Test results: patent US12145948B2, “Compounds and methods for modulating HER2” (IAMBIC THERAPEUTICS, INC., priority 2022, dated 2024)

Legend:
BaF3_HER2WT cells = BaF3_HER2WT cells (Homo sapiens, UniProt P04626); assay: Cell growth inhibition assay (CellTiterGlo, 3 days), BaF3_HER2WT; format: cell-based; settings: read-out: HER2 WT IC50
BaF3-HER2YVMA cells = BaF3-HER2YVMA cells (Homo sapiens, UniProt P04626, DUP772-775, cells depend on it); assay: Cell growth inhibition assay (CellTiterGlo, 3 days), BaF3-HER2YVMA; format: cell-based; settings: BaF3_HER2YVMA cells, read-out: HER2-YVMA IC50
BaF3-HER2YVMA cells, sequence (P04626 with tags, fused parts or gaps DUP772-775): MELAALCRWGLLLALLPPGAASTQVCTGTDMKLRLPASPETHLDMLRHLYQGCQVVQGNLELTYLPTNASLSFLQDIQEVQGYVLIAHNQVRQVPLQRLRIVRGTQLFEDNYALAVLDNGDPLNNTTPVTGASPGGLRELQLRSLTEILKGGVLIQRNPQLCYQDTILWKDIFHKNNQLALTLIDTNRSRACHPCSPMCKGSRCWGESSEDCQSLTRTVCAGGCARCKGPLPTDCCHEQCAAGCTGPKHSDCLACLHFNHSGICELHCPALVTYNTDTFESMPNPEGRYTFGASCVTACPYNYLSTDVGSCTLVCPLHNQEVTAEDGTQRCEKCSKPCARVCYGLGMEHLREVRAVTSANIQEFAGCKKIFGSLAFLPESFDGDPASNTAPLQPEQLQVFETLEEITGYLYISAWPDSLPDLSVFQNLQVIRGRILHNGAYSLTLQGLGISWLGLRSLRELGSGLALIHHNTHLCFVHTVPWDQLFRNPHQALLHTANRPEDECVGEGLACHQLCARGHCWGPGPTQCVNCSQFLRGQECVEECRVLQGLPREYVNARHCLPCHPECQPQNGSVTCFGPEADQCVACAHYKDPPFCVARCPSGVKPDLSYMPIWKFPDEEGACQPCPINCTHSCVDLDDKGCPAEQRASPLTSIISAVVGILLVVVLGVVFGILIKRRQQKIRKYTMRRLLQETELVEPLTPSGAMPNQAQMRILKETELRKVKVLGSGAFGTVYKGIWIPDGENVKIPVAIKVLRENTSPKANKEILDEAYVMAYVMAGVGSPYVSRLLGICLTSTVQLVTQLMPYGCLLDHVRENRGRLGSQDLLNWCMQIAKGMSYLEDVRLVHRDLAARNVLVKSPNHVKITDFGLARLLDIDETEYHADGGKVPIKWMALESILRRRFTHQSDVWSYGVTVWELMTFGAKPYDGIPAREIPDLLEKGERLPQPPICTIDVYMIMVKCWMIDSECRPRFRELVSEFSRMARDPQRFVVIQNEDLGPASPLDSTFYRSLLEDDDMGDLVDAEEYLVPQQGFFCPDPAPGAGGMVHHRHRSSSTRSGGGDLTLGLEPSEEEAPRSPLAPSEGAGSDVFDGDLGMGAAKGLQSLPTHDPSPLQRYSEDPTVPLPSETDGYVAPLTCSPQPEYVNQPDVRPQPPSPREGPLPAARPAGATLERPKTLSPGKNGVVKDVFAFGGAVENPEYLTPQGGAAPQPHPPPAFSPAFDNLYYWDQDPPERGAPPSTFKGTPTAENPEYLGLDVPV

BaF3_EGFRWT cells = BaF3_EGFRWT cells (Homo sapiens, UniProt P00533); assay: Cell growth inhibition assay (CellTiterGlo, 3 days), BaF3_EGFRWT; format: cell-based; settings: read-out: EGFR WT IC50
BaF3_EGFRWT cells, sequence (P00533 whole entry, stated change not applied): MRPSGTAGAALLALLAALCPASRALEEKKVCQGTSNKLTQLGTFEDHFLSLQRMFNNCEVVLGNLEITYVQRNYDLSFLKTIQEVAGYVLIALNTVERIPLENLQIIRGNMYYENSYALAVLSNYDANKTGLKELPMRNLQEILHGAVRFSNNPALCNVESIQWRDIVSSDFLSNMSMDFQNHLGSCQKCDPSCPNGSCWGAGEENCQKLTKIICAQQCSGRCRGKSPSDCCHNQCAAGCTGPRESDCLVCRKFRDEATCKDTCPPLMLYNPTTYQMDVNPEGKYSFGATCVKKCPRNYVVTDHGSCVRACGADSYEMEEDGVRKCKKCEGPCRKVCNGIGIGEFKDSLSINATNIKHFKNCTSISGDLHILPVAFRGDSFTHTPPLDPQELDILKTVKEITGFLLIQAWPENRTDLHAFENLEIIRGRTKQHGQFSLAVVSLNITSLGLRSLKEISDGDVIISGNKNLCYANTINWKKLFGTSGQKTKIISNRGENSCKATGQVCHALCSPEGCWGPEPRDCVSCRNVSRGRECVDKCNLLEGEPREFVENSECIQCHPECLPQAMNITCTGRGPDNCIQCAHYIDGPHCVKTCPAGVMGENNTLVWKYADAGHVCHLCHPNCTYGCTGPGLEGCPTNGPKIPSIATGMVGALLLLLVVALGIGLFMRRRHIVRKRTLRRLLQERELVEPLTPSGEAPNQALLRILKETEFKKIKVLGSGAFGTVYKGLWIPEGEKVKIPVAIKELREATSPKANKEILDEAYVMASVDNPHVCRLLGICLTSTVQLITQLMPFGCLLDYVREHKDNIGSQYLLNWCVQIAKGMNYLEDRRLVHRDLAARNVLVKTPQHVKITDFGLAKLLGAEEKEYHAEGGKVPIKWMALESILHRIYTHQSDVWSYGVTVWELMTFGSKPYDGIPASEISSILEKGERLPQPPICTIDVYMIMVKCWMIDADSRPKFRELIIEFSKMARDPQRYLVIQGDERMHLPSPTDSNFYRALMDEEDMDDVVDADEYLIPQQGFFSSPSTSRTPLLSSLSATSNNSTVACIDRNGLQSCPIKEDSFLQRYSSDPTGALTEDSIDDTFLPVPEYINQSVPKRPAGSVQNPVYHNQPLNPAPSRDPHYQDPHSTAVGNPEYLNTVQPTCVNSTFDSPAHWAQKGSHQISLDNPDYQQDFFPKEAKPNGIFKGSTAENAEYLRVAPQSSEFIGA

[1] = biological target: T1, ERBB2-A775_G776insYVMA (ERBB2YVMA) (Homo sapiens, UniProt P04626, INS775YVMA); assay: HotSpot radiometric kinase activity assay, ERBB2YVMA; settings: biochemical activity, read-out: HER2-YVMA IC50
T1 construct: purchased SignalChem E27-13BG
T1 sequence (P04626 with tags, fused parts or gaps INS775YVMA limits assumed): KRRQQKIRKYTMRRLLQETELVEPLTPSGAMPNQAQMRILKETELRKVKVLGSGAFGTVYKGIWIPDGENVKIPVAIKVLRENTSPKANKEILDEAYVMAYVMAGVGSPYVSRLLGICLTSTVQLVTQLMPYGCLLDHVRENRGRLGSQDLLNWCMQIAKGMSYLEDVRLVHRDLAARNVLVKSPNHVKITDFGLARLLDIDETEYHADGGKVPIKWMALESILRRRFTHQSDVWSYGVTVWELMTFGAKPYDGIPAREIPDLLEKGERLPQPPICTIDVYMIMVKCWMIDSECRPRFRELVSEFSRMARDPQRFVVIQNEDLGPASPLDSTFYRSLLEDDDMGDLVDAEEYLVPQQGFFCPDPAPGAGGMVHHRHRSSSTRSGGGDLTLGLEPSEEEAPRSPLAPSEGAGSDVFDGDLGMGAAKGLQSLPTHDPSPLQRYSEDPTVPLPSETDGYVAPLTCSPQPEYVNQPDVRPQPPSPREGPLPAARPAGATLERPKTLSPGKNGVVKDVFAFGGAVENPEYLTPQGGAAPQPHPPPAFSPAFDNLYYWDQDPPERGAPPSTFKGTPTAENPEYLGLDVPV
Procedure: The purpose of the wtERBB2, ERBB2-A775_G776insYVMA (ERBB2YVMA), wtEGFR biochemical assay was to evaluate the inhibition (% inhibition and IC50 values) of the small molecule inhibitors by using the “HotSpot” radiometric kinase activity assay. HotSpot assays monitor the […] of kinase substrate by the radioactive gamma phosphate of adenosine triphosphate (33P-ATP) during biochemical reactions. HotSpot assays was performed in steps upon completion of the kinase reaction: deposition of a reaction mixture aliquot onto P81 ion exchange paper, extensive washing of the aforementioned P81 paper using phosphoric acid to remove unbound radiolabeled 33P-ATP from the P81 paper, and finally visualization and quantification of the dried P81 paper utilizing a phosphoimager. […] Typical reaction solutions (10 μL final reaction volume) contained the following buffer conditions: 20 mM Hepes (pH 7.5), 10 mM MgCl2, 1 mM EGTA, 0.01% Brij35, 0.02 mg/mL BSA, 0.1 mM Na3VO4, 2 mM DTT, 1% DMSO. The assay was primed by preparing a fresh 0.2 mg/mL solution of pEY (Sigma Cat: P7244) substrate in the reaction buffer and supplementing that solution with […] of MnCl2 as substrate cofactor (Sigma Cat: M9522). The kinase of interest was then added to the solution at the appropriate concentration (30 nM wtERBB2 from, or 20 nM ERBB2YVMA, or 4 nM wtEGFR) and gently mixed prior to delivery of compound in 100% DMSO by acoustic dispensing (Beckman Echo550). Compound, Kinase, and substrate were allowed to incubate for 20 min at room temperature prior to the initiation of the reaction by addition of 33P-ATP (PerkinElmer Cat: NEG602, final conc 10 μM). […] IC50 determinations were made from a plot of kinase activity as a function of inhibitor concentration fit to the 4-parameter IC50 equation with the enzyme concentration held constant using GraphPad Prism (San Diego).

BaF3_HER2WT cells, sequence (P04626 whole entry, change not shown): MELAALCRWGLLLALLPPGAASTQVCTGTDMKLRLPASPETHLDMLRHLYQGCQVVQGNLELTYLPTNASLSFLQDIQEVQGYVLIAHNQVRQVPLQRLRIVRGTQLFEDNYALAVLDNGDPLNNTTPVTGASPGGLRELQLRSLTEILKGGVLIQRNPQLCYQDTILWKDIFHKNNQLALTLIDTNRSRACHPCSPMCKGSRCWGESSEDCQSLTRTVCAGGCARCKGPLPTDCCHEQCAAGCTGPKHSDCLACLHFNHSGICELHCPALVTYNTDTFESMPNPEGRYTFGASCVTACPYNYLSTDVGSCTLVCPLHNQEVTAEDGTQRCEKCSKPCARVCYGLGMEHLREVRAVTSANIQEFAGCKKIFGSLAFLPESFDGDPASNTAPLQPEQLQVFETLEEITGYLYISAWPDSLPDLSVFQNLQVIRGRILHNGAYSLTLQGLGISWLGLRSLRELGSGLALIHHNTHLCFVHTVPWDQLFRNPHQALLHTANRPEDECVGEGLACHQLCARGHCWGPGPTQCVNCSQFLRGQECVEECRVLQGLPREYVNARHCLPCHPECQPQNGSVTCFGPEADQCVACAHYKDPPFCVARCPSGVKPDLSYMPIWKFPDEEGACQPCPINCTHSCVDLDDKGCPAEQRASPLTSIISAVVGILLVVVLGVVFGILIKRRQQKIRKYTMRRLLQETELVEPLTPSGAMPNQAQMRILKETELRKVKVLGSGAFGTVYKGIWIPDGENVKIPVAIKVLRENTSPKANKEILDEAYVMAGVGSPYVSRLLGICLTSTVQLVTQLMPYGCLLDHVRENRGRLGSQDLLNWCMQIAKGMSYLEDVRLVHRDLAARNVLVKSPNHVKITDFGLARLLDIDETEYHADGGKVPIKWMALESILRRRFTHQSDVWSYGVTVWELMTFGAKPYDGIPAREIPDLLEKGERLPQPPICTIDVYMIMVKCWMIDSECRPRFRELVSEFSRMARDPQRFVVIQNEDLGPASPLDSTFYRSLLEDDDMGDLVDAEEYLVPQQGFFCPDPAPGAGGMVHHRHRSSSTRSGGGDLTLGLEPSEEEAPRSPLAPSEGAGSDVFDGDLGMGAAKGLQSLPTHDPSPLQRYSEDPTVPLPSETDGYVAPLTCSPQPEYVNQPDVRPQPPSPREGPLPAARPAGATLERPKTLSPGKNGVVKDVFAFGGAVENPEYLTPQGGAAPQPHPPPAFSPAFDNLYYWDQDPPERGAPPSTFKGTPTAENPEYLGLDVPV

| Compound | GI50 (BaF3_HER2WT cells) [nM] | GI50 (BaF3-HER2YVMA cells) [nM] | GI50 (BaF3_EGFRWT cells) [nM] | IC50 [1] [nM] |
| --- | --- | --- | --- | --- |
| Cc1cc(Nc2ncnn3ccc(C4CC5CCC4CN5C(=O)/C=C/CN(C)C)c23)ccc1Oc1ccn2ncnc2c1 (single isomer, unassigned; first eluting) [first eluting isomer of Examples 137 and 138] | < 200 | – | – | – |
| Cc1cc(Nc2ncnn3ccc(C4CCN(C(=O)[C@@H](F)Cl)CC4)c23)ccc1Oc1ccn2ncnc2c1 (single isomer, unassigned) [second eluting isomer of Examples 173 and 174] | < 200 | < 200 | 1500 to 5000 | – |
| Cc1cc(Nc2ncnn3ccc([C@H]4CCN(C(=O)/C=C/CN(C)C)C4)c23)ccc1Oc1ccn2ncnc2c1 (single isomer, unassigned) [Example 100] | – | – | – | < 200 |
| Cc1cc(Nc2ncnn3ccc([C@H]4CCCN(C(=O)/C=C/CN(C)C)CC4)c23)ccc1Oc1ccn2ncnc2c1 (single isomer, unassigned) [Example 110] | – | – | – | < 200 |
| C=C(CN(C)C)C(=O)N1C2C=C(c3ccn4ncnc(Nc5ccc(Oc6ccn7ncnc7c6)c(C)c5)c34)CC1CC2 (stereo not shown) [Example 30, 1-(3-(4-((4-([1,2,4]triazolo[1,5-a]pyridin-7-yloxy)-3-methylphenyl)amino)pyrrolo[2,1-f][1,2,4]triazin-5-yl)-8-azabicyclo[3.2.1]oct-2-en-8-yl)-2-((dimethylamino)methyl) prop-2-en-1-one acetate] | < 200 | < 200 | 1500 to 5000 | – |
| Cc1cc(Nc2ncnn3ccc([C@H]4CCCN(C(=O)/C=C/CN(C)C)C4)c23)ccc1Oc1ccn2ncnc2c1 (single isomer, unassigned) [Example 108] | – | – | – | < 200 |
